The test system of experiment [1] is HCT-116. In words: Induction of apoptosis in human HCT-116 cells assessed as late apoptotic cells at 10 uM after 24 hrs by Annexin V-FITC/PI staining based flow cytometric analysis (reference value: 5.14%). It counts as functional. (Flow cytometry measures light scatter and fluorescence of single cells or particles in a stream.)
Experiment [2] has as its system HCT-116. Kind of experiment: Induction of apoptosis in human HCT-116 cells assessed as necrotic cells at 10 uM after 24 hrs by Annexin V-FITC/PI staining based flow cytometric analysis (reference value: 0.51%). It counts as functional.
Experiment [3] has as its system HCT-116. In words: Antiproliferative activity against human HCT-116 cells assessed as reduction in cell viability after 72 hrs by MTT assay. The format is functional, cell-based. The conditions noted are these: HCT-116, 72 h.
The test system of experiment [4] is HCT-116. Kind of experiment: Induction of apoptosis in human HCT-116 cells assessed as early apoptotic cells at 10 uM after 24 hrs by Annexin V-FITC/PI staining based flow cytometric analysis (reference value: 4.01%). It counts as functional.
In the next experiment the target is Histone deacetylase 2 (Homo sapiens, UniProt Q92769). In words: Inhibition of recombinant human C-terminal His-tagged HDAC2 (1 to end residues) expressed in sf9 insect cells using Boc-Lys(Ac)-AMC as substrate incubated for 60 mins by fluorescence assay.
Sequence of Histone deacetylase 2 (Q92769 whole entry): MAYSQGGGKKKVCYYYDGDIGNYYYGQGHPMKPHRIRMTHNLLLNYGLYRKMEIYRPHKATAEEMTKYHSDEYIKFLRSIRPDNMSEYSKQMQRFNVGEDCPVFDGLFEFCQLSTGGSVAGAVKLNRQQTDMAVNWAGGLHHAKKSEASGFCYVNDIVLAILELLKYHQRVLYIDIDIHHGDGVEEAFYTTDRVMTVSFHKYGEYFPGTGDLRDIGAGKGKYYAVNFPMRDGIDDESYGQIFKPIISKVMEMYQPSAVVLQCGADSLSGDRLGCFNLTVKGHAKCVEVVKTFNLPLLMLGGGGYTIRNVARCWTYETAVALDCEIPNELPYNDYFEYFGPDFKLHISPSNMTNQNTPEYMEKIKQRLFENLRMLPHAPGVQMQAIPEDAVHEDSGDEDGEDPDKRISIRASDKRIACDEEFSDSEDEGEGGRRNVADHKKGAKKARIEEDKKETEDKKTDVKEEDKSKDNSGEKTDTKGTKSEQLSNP
Another experiment concerns the target Histone deacetylase 1 (Homo sapiens, UniProt Q13547). Kind of experiment: Inhibition of recombinant human C-terminal His/FLAG-tagged HDAC1 (1 to end residues) expressed in sf9 insect cells using Boc-Lys(Ac)-AMC as substrate incubated for 60 mins by fluorescence assay.
In experiment [5] the test system is HCT-116. Kind of experiment: Induction of apoptosis in human HCT-116 cells assessed as late apoptotic cells at 1 uM after 24 hrs by Annexin V-FITC/PI staining based flow cytometric analysis (reference value: 5.14%). It counts as functional.
Experiment [6] deals with HCT-116. Kind of experiment: Induction of apoptosis in human HCT-116 cells assessed as viable cells at 10 uM after 24 hrs by Annexin V-FITC/PI staining based flow cytometric analysis (reference value: 90.34%). It counts as functional. The conditions noted are these: read-out: Activity.
Experiment [7] deals with HCT-116. Kind of experiment: Induction of apoptosis in human HCT-116 cells assessed as early apoptotic cells at 1 uM after 24 hrs by Annexin V-FITC/PI staining based flow cytometric analysis (reference value: 4.01%). It counts as functional.
Experiment [8] has as its system HCT-116. Kind of experiment: Inhibition of HDAC in human HCT-116 cells assessed as up regulation of acetylated tubulin protein expression at 1.25 to 10 uM after 8 hrs by Western blot analysis. The settings on record: dose 1.25-10 µM. The format is cell-based. For orientation: In western blotting, separated proteins are transferred to a membrane and probed.
The subject of a further experiment is HeLa. Kind of experiment: cells. It counts as functional, cell-based. The conditions noted are these: Homo sapiens, 72 h.
Experiment [9] concerns HCT-116. In words: Induction of apoptosis in human HCT-116 cells assessed as viable cells at 1 uM after 24 hrs by Annexin V-FITC/PI staining based flow cytometric analysis (reference value: 90.34%). The format is functional. The settings on record: Homo sapiens, HCT-116, read-out: Activity.
The test system of experiment [10] is HCT-116. In words: Induction of apoptosis in human HCT-116 cells assessed as viable cells at 3 uM after 24 hrs by Annexin V-FITC/PI staining based flow cytometric analysis (reference value: 90.34%). It counts as functional. The settings on record: Homo sapiens, HCT-116, read-out: Activity.
Experiment [11] deals with HCT-116. In words: Induction of apoptosis in human HCT-116 cells assessed as early apoptotic cells at 3 uM after 24 hrs by Annexin V-FITC/PI staining based flow cytometric analysis (reference value: 4.01%). It counts as functional.
The test system of experiment [12] is HCT-116. In words: Induction of apoptosis in human HCT-116 cells assessed as necrotic cells at 3 uM after 24 hrs by Annexin V-FITC/PI staining based flow cytometric analysis (reference value: 0.51%). It counts as functional.
For experiment [13], the system named is HCT-116. In words: Induction of cell cycle arrest in human HCT116 cells assessed as cell accumulation at S phase at 3 uM after 24 hrs by Rnase/PI staining based flow cytometric analysis (reference value: 25.2%). It counts as functional.
The subject of experiment [14] is HCT-116. In words: Inhibition of HDAC in human HCT-116 cells assessed as up regulation of acetylated histone H3 protein expression at 1.25 to 10 uM after 8 hrs by Western blot analysis. The format is cell-based. The settings on record: dose 1.25-10 µM.
In experiment [15] the test system is HCT-116. Kind of experiment: Induction of apoptosis in human HCT-116 cells assessed as late apoptotic cells at 3 uM after 24 hrs by Annexin V-FITC/PI staining based flow cytometric analysis (reference value: 5.14%). The format is functional.
In the next experiment the target is T1, Histone deacetylase 8 (Homo sapiens, UniProt Q9BY41).
T1 sequence (Q9BY41 whole entry): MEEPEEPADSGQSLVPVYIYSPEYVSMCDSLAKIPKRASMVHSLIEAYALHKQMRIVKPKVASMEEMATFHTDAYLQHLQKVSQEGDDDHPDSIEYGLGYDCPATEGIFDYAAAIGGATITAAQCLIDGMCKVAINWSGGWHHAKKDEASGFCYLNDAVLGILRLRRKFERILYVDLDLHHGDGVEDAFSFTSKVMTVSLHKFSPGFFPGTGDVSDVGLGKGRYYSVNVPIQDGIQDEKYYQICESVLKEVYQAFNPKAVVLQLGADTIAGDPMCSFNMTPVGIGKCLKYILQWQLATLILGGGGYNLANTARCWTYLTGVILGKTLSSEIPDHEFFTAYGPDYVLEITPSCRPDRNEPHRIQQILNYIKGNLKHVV
In words: Inhibition of recombinant human full length C-terminal His-tagged HDAC8 expressed in sf9 insect cells using Boc-Lys(TFA)-AM as substrate incubated for 60 mins by fluorescence assay.

The next experiment has as its system MCF7. In words: cells. The settings on record: Homo sapiens, MCF7, 72 h.
Experiment [16] has as its system HCT-116. In words: Induction of cell cycle arrest in human HCT116 cells assessed as cell accumulation at G0/G1 phase at 3 uM after 24 hrs by Rnase/PI staining based flow cytometric analysis (reference value: 48.4%). The format is functional.
Experiment [17] concerns HCT-116. Kind of experiment: Induction of apoptosis in human HCT-116 cells assessed as necrotic cells at 1 uM after 24 hrs by Annexin V-FITC/PI staining based flow cytometric analysis (reference value: 0.51%). It counts as functional.
The subject of experiment [18] is HCT-116. Kind of experiment: Induction of cell cycle arrest in human HCT116 cells assessed as cell accumulation at G2/M phase at 3 uM after 24 hrs by Rnase/PI staining based flow cytometric analysis (reference value: 26.4%). It counts as functional.
The subject of experiment [19] is HCT-116. In words: Induction of apoptosis in human HCT-116 cells after 24 hrs by Annexin V-FITC/PI staining based flow cytometric analysis. The format is functional, cell-based.

Activity calls are given as the source filed them. The rule behind the calls is not given here.

We go through three compounds from ChEMBL document CHEMBL4765277, “Design, synthesis and biological evaluation of novel indazole-based derivatives as potent HDAC inhibitors via fragment-based virtual screening” (Eur J Med Chem, 2020).

Sequence of Histone deacetylase 1 (Q13547 whole entry): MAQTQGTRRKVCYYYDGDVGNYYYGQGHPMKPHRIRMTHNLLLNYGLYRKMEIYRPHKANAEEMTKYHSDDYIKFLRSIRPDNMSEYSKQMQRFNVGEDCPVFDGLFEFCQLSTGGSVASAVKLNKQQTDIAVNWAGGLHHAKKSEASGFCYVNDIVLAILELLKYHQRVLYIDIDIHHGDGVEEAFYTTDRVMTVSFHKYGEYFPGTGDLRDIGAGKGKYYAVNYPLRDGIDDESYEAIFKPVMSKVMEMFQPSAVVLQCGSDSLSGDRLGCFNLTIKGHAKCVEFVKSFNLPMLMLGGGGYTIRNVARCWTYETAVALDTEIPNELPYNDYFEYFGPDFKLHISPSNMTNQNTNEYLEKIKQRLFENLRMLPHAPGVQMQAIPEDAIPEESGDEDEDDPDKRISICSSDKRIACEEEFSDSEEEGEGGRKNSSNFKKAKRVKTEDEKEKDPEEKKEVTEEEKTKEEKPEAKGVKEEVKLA
Description for HeLa: Antiproliferative activity against human HeLa cells assessed as reduction in cell viability after 72 hrs by MTT assay
Description for MCF7: Antiproliferative activity against human MCF7 cells assessed as reduction in cell viability after 72 hrs by MTT assay

For the compound `COc1ccc(-c2ccc3c(NC(=O)CCCCCCC(=O)NO)n[nH]c3n2)cc1`, the Activity in the experiment on HCT-116 [1] was 13.34%; with HCT-116 [2], 1.1%; in the experiment with HCT-116 [4], 5.75%; with HCT-116 [5] it was 5.52%; in the experiment with HCT-116 [7], 2.34%; in the experiment on HCT-116 [11] it was 2.89%. For the same compound, the Activity in the experiment on HCT-116 [12] was 0.24%; with HCT-116 [13], 26.1%; in the experiment on HCT-116 [15] it was 7.8%; with HCT-116 [16], 50%; in the experiment on HCT-116 [17], 0.31%; in the experiment with HCT-116 [18] it was 23.9%. For the same compound, the IC50 in the experiment with HCT-116 [3] came out at 4100 nM; at Histone deacetylase 2 it was 9 nM; at Histone deacetylase 1 it was 6 nM; with HeLa, 4800 nM; at Histone deacetylase 8, 7.2 nM; in the experiment with MCF7, 1200 nM. Also, the viability at 10 µM with HCT-116 [6] came to 79.8%. In addition, the inhibition entry with HCT-116 [8] and in the experiment on HCT-116 [14] was “Active” throughout. Also, the viability at 1 µM with HCT-116 [9] came out at 91.8%. In addition, the viability at 3 µM with HCT-116 [10] was 89.1%.

Regarding `O=C(CCCCCCC(=O)Nc1n[nH]c2cc(-c3ccc(Cl)cc3)ccc12)NO`, the Activity in the experiment with HCT-116 [1] is recorded as 61.98%; in the experiment on HCT-116 [2], 2.47%; in the experiment on HCT-116 [4], 12.32%; in the experiment with HCT-116 [5], 46.29%; in the experiment with HCT-116 [7], 8.73%; in the experiment on HCT-116 [11], 10.36%. Besides, the Activity was 0.86% with HCT-116 [12]; 29.7% with HCT-116 [13]; 64.75% in the experiment on HCT-116 [15]; 26.2% with HCT-116 [16]; “Dose-dependent effect” in the experiment on HCT-116 [19]; 2.41% with HCT-116 [17]. For the same compound, the Activity in the experiment with HCT-116 [18] was 44.1%. In addition, the IC50 in the experiment with HCT-116 [3] was determined as 3900 nM; on Histone deacetylase 2, 3.6 nM; at Histone deacetylase 1 it was 3.1 nM; with HeLa, 4800 nM; at Histone deacetylase 8, 3.3 nM; in the experiment on MCF7, 1000 nM. Further, in the experiment with HCT-116 [6], the viability at 10 µM came to 23.2%. The inhibition entry in the experiment on HCT-116 [8] and in the experiment with HCT-116 [14] was “Active” each time. Moreover, the viability at 1 µM in the experiment on HCT-116 [9] worked out at 40.6%. Further, the viability at 3 µM with HCT-116 [10] was determined as 24%.

Take `COc1ccc(-c2ccc3c(NC(=O)CCCCCCC(=O)NO)n[nH]c3c2)cc1`: the Activity amounted to 62.58% with HCT-116 [1]; 1.19% in the experiment with HCT-116 [2]; 15.64% with HCT-116 [4]; 40.02% with HCT-116 [5]; 17.34% in the experiment with HCT-116 [7]; 13.72% with HCT-116 [11]. Moreover, the Activity is 0.33% with HCT-116 [12]; 26.9% in the experiment on HCT-116 [13]; 54.58% in the experiment with HCT-116 [15]; 29.8% in the experiment on HCT-116 [16]; “Dose-dependent effect” with HCT-116 [19]; 0.27% with HCT-116 [17]. In the experiment on HCT-116 [18], the Activity was determined as 43.3%. The IC50 in the experiment on HCT-116 [3] came to 2100 nM; at Histone deacetylase 2, 4.2 nM; on Histone deacetylase 1, 2.7 nM; with HeLa, 4400 nM; at Histone deacetylase 8, 3.6 nM; in the experiment with MCF7, 900 nM. Moreover, the viability at 10 µM in the experiment on HCT-116 [6] came out at 20.6%. For the same compound, the inhibition result with HCT-116 [8] and in the experiment on HCT-116 [14] was “Active” throughout. For the same compound, in the experiment on HCT-116 [9], the viability at 1 µM was determined as 42.4%. In addition, the viability at 3 µM with HCT-116 [10] was determined as 31.4%.

The term IC50 denotes the point on the concentration scale where inhibition reaches its midpoint.
